Among the data in ChEMBL document CHEMBL1126818, “Isosteric replacement in a series of -substituted monophosphonate calcium antagonists” (Bioorg Med Chem Lett, 1993) are Ki and Kb values, retold here.

pKi: −log10 of the molar value. Where only a bound is given, the exact number is not on record here.

A short description of assay [1]: The compound was tested in vitro for its ability to displace [3H]PN-200-110 from Calcium Channel in rat brain membranes. The class given is cell membranes.
Another assay is filed under the species Rattus norvegicus. In words: Inhibition of contractions induced by K+ depolarization in rat dorsal aorta. In kind it is functional.
Assay [2] in a line: The compound was tested in vitro for its ability to displace [3H]PN-200-110 from rat brain membranes. In kind it is tissue-based, Membrane.

Regarding `CCCCOP(=O)(CC(CCc1ccccc1)OP(=O)(OCCCC)OCCCC)OCCCC` (configuration not stated), in assay [1], the pKi was 6.41. In addition, the Kb in the assay listed under Rattus norvegicus amounted to 76 nM.

`CCCCNC(=O)NC(CCc1ccccc1)CP(=O)(OCCCC)OCCCC` (configuration not stated): in assay [1], the pKi was less than 6.00. Also, the Kb in the assay listed under Rattus norvegicus was 129 nM.

As for `CCCCOP(=O)(CC(CCc1ccccc1)NS(=O)(=O)c1ccc(C)cc1)OCCCC` (configuration not stated), in assay [1], the negative-log Ki (pKi) was less than 6.00. This molecule had a Kb in the assay listed under Rattus norvegicus of 348 nM.

Regarding `CCCCOP(=O)(CC(CCc1ccccc1)OC(=O)C(F)(F)F)OCCCC` (configuration not stated), the pKi in assay [1] was less than 6.00. This molecule also returned a Kb in the assay listed under Rattus norvegicus greater than 1000 nM.

Consider `CCCCOC(=O)OC(CCc1ccccc1)CP(=O)(OCCCC)OCCCC` (configuration not stated), for which the pKi in assay [1] is less than 6.00. Also, the Kb in the assay listed under Rattus norvegicus turned out to be 255 nM.

For the molecule `CCCCOP(=O)(CC(CCOc1ccccc1)CP(=O)(OCCCC)OCCCC)OCCCC` [BELFOSDIL], the pKi in assay [1] was 7.64. The Kb in the assay filed under Rattus norvegicus is 0.5 nM.

`CCCCOP(=O)(CC(CCc1ccccc1)OC(=O)C(C)(C)C)OCCCC` (configuration not stated): in assay [1], the pKi is less than 6.00. Further, the Kb in the assay listed under Rattus norvegicus was 105 nM.

With `CCCCCC(=O)OC(Cc1ccccc1)CP(=O)(OCCCC)OCCCC` (configuration not stated), in assay [1], the pKi is 6.25. For the same molecule, the Kb in the assay filed under Rattus norvegicus turned out to be 211 nM.

Regarding `COC(=O)C1=C(C)NC(C)=C(C(=O)OC)C1c1ccccc1[N+](=O)[O-]` [NIFEDIPINE], in assay [1], the pKi was 9.28. Also, the Kb in the assay filed under Rattus norvegicus came out at 0.5 nM.

In the case of `CCCCOC(=O)NC(CCc1ccccc1)CP(=O)(OCCCC)OCCCC` (configuration not stated), the pKi in assay [1] is less than 6.00. Besides, in the assay filed under Rattus norvegicus, the Kb was 122 nM.

Turning to `CCCCNC(=O)OC(CCc1ccccc1)CP(=O)(OCCCC)OCCCC` (configuration not stated), the pKi in assay [1] was less than 6.00. In addition, the Kb in the assay filed under Rattus norvegicus is 38 nM.

For the molecule `CCCCOP(=O)(CC(CCc1ccccc1)OC(C)=O)OCCCC` (configuration not stated), the pKi in assay [1] is 7.26. The molecule further yielded a Kb in the assay listed under Rattus norvegicus of 25 nM.

For the molecule `CCCCOP(=O)(CC(CCc1ccccc1)OC(=O)c1ccccc1)OCCCC` (configuration not stated), the pKi in assay [1] was less than 6.00. Moreover, the Kb in the assay listed under Rattus norvegicus is 662 nM.

With `CCCCOP(=O)(CC(CCc1ccccc1)OC(=O)C1CC1)OCCCC` (configuration not stated), in assay [1], the pKi is less than 6.00. Moreover, the Kb in the assay listed under Rattus norvegicus was determined as 628 nM.

`CCCCOP(=O)(CC(CCc1ccccc1)NP(=O)(OCC)OCC)OCCCC` (configuration not stated): the pKi in assay [1] was less than 6.00. In the assay filed under Rattus norvegicus, this molecule registered a Kb of 62 nM.

In the case of `CCCCOP(=O)(CC(CCc1ccccc1)OS(C)(=O)=O)OCCCC` (configuration not stated), in assay [2], the pKi was less than 6.00. For the same molecule, the Kb in the assay listed under Rattus norvegicus is greater than 1000 nM.

For the molecule `CCCCCC(=O)OC(CCc1ccccc1)CP(=O)(OCCCC)OCCCC` (configuration not stated), the pKi in assay [1] is 7.29. Moreover, the Kb in the assay listed under Rattus norvegicus amounted to 6.6 nM.

In the case of `CCCCCC(=O)OC(CCCc1ccccc1)CP(=O)(OCCCC)OCCCC` (configuration not stated), in assay [1], the pKi was less than 6.00. Besides, the Kb in the assay listed under Rattus norvegicus was greater than 1000 nM.

In the assay filed under Rattus norvegicus, `CCOP(=O)(Cc1ccc(-c2nc3ccccc3s2)cc1)OCC` [FOSTEDIL] came in with a Kb greater than 1000 nM.

By pKi is commonly meant −log10 of the Ki, conventionally taken in molar units.
